The source of these data is article PMC7206208, “In vivo data: treatment with the F11R/JAM-A peptide 4D decreases mortality and reduces the generation of atherosclerotic plaques in ApoE-deficient mice” (Data in Brief, 2020).

By Tmax is commonly meant the time from dosing to the highest level. As usually defined, the half-life is the time needed for the level to fall by half in the phase considered.

In data set [1] the test system is human platelets (in platelet-rich plasma). The data set can be described thus: ADP-induced platelet aggregation in platelet-rich plasma (turbidimetric). The data set is classed as cell-based. To be noted: for maximal platelet aggregation [%] in response to 10 µM ADP: PRP, 37°C, 2 min pre-incubation, mean ± SD, n=3-7. Here is the method:
Fig. 4 Test of the effect of peptide 4D on the ADP-induced aggregation of human platelets (in platelet-rich plasma). Fig. 4A. This figure depicts a representative tracing of platelet aggregation induced by ADP (2µM) in the presence of peptide 4D (P4D; 500µM, final concentration), in comparison to the ADP-induced platelet aggregation in the absence of peptide 4D (control). Fig. 4B. This figure depicts a representative tracing of platelet aggregation induced by ADP (10µM) in the presence of peptide 4D (P4D, 500µM final concentration), in comparison to the ADP-induced platelet aggregation in the absence of peptide 4D (control).
Platelet aggregation in platelet-rich plasma (PRP) was carried-out by using the turbidimetric method in a platelet aggregometer (Chronolog, Haverstown, PA). Aliquots of the PRP were maintained at 37°C. The effect of peptide 4D on platelet aggregation was examined by utilizing three concentrations of peptide 4D (final concentrations of 100µM, 250µM and 500 µM). The PRP was incubated for 2 minutes with peptide 4D prior to the addition of ADP at final concentrations of 2µM (subthreshold concentration) or 10µM, for the initiation of platelet aggregation.

The conditions of data set [2]: mouse, in vivo. Here is the method: The concentration of peptide 4D was measured in the plasma at various time points, and is expressed in µg/ml. […] Time points of 15 min, followed by 1, 2, 4, 5, and 24 hours after the administration of peptide 4D were selected to generate the concentration of Cmax, Tmax, area under the plasma concentration time curve (AUC), drug clearance, terminal elimination half-life, and volume of distribution.
Drug pharmacokinetics (PK) in vivo is a key requirement for the evaluation of the stability and availability of peptide 4D, as a potential compound for use in the next phase of our investigations. Accordingly, PK data of peptide 4D were obtained by the Services of Bio Quant, San Diego, CA. Thus far, a single dose of the F11R peptide 4D and a time perfusion course were performed in Balb/c mice. Time points of 15 min, followed by 1, 2, 4, 5, and 24 hr after the administration of peptide 4D to animals, were selected to generate concentration vs time curves thereby allowing for the determination of the PK parameters of maximal concentration (Cmax), maximal time (Tmax), area under the plasma concentration time curve (AUC), drug clearance, terminal elimination half-life, and volume of distribution of peptide 4D.

For a further data set, the system named is platelets. Description: M.Ab.F11-induced platelet aggregation in vitro. The data set is classed as cell-based. To be noted: peptide 4D 0.3 mg (670 µg/ml), from dose-response.
Another data set concerns ApoE-/- mice. The data set can be described thus: Chronic treatment of ApoE-/- mice: atherosclerotic plaques and physical appearance. The data set is classed as in vivo, mouse. Here is the method: Female Apo E^-/- mice (six weeks old) of a C57BL/6J background, (Jackson Laboratory, Bar Harbor, Me), were divided into two separately-housed groups. Group 1 was treated with peptide 4D by daily, intraperitoneal injections with peptide 4D (4.3 mg/200µl) for a 3 month period. Group 2 was injected daily with an equivalent amount of diluent vehicle (200µl of 0.9% saline) for the same 3- month period. All animals were fed a regular Rodent Diet (Calories provided by protein 28.1%, fat 12.13% and carbohydrates 59.8%) for two months, then the diet was switched to a Western-type diet (TD.88137 Adjusted Calories Diet (42% from fat) (0.15% cholesterol, 21% anhydrous milk fat) (Harlan Laboratories Inc.) to induce hypercholesterolemia for a period of one month, [2]. Following 3 month of injections with either the F11R peptide 4D or the vehicle, saline, the animals were euthanized. The aortas and hearts were isolated, dissected, and the atherosclerotic lesions were analyzed.
Following euthanasia, the aortas were prepared for dissection and the aortic arches were photographed. Following dissection, en face lesion surface area assay was performed on the aortas and hearts as previously described, [4], [5]. The dissected aortas were stained with Oil-Red-O stain modified from previously described methods, [4], [6]. […] The total intimal lesion area and the necrotic core area (NE) per cross section were quantified by taking the average of 6 sections spaced 30 µm apart, beginning at the base of the aortic root. The necrotic core areas, acellular/anuclear areas (negative for hematoxylin-positive nuclei, white areas of lesion) were measured per cross section from the same slides where total intimal lesion area was measured. […] Lesion areas or necrotic areas (white areas of lesion) where measured and summarized using software Image-J. The aortas were fixed in PBS/4% formaldehyde for 3 days, washed in PBS followed by staining with 1.8% Oil-Red-O in 60% isopropanol for 15 min at 22°C, then de-stained in 60% isopropanol for 5 min. […]

The subject of the next data set is inflamed endothelium. Description: Platelet adhesion to walls of blood vessels, intravital microscopy. It is filed as in vivo, mice. As to conditions: intravital microscopy videos, arteriole and venule. The text has this:
The F11 Receptor (F11R/JAM-A; Junctional Adhesion Molecule-A; JAM-A; F11R) is a cell adhesion protein present on the surface of circulating platelets and located within the tight junctions of endothelial and epithelial cells. The data presented here confirm in-vivo evidence for the critical role of F11R/JAM-A in the formation of atherosclerotic plaques in ApoE^-/- mice and provide further strong experimental support for our work in Babinska et al. (2019). […] These mice were euthanized, and at the same time, two mice obtained from the peptide 4D-treated group were randomly-selected and euthanized, and their tissues examined histologically in comparison to the controls. […] The data presented in Fig. 3, compare the overall health and physical appearance of 10^1/2 months old ApoE^-/- mice following their termination of a 4- month injection period with either peptide 4D or the vehicle. […] Data of Fig. 5 display the pharmacokinetic analysis (PK) of peptide 4D in vivo. Data display by videos: videos depicting platelet adhesion to the walls of blood vessels using the Intravital Microscopy System are provided and available in this article as the Supplemental Files. […]

The test system of data set [3] is inflamed endothelial cells. To be noted: in culture; the authors' earlier work; cited from earlier work. The text has this: The data in this article focus on the F11 Receptor (F11R/JAM-A; Junctional Adhesion Molecule-A; JAM-A, F11R), a cell adhesion protein constitutively expressed on the membrane surface of circulating platelets and localized within the tight junctions of healthy endothelial cells (ECs). Previous reports have shown that F11R/JAM-A plays a critical role in the adhesion of platelets to an inflamed endothelium due to its’ pathological expression on the luminal surface of the cytokine-inflamed endothelium. Since platelet adhesion to an inflamed endothelium is an early step in the development of athero ...

Non-standard residues stand in square brackets, D forms with d. Residues, ends and D or L forms follow the SMILES beside them.

On to `CC(C)[C@H](NC(=O)[C@H](CO)NC(=O)[C@H](N)CCCCN)C(=O)N[C@H](C(=O)N[C@H](CCCNC(=N)N)C(=O)N[C@@H](CCC(=O)O)C(=O)N[C@@H](CC(=O)O)C(=O)N[C@H](C(=O)NCC(=O)N[C@H](C(=O)N[C@@H](Cc1ccc(O)cc1)C(=O)N[C@H](C(=O)N[C@@H](CS)C(N)=O)[C@@H](C)O)[C@@H](C)O)[C@@H](C)O)[C@@H](C)O` [peptide 4D] (H-[dK]SVT[dR]EDTGTYTC-NH2; N-terminus and C-terminus assumed), for which, in data set [1] (Fig. 4 and Table 1, ADP 2 or 10 µM, peptide 100-500 µM), the “effect on ADP-induced platelet aggregation” value was “lack of an inhibitory effect”. Moreover, the results for the “maximal platelet aggregation [%] in response to 10 µM ADP” value in data set [1] (P4D 100 µM), in data set [1] (P4D 250 µM) and in data set [1] (P4D 500 µM) were 70 ± 12%, 73 ± 13% and 74 ± 20%, respectively. The Tmax in data set [2] is 18 min. Besides, in data set [2], the half-life is > 210 min. In addition, the “inhibition of M.Ab.F11-induced platelet aggregation” value with platelets was “completely inhibited”. In addition, in the data set on ApoE-/- mice (daily i.p. 215 mg/kg (4.3 mg/200 µl) for 3 months, versus saline controls, two mice per group, Fig. 2), the “plaque accumulation in the aortic arch and the whole aorta” value is “much diminished plaque accumulation”. The external physical appearance result in the data set on ApoE-/- mice (daily i.p. for 3 months, versus saline controls, Fig. 1) is reported as “healthy”. In addition, the “skin lesion on the chest” value in the data set with ApoE-/- mice (daily i.p. for 4 months, then stopped, observed at 10 1/2 months of age, Fig. 3B) is recorded as “lack of lesion”. Besides, the “adhesion of platelets onto the inflamed endothelium” value in the data set on inflamed endothelium is on record as “significant blockade”. Further, the “adhesion of platelets to the inflamed endothelial cells” value in data set [3] was “could be blocked”.
